According to US10286079B2, “Modified cytotoxins and their therapeutic use” (The Regents of the University of California, priority 2015, dated 2019):

Assays:
HeLa cells = assay: In vitro cytotoxicity, CellTiter Blue cell viability; assay type: cell-based; settings: 3 days
Experimental: HeLa cells were obtained from ATCC and incubated at 37° C. at 5% CO2 using DMEM supplemented with 10% FBS, and 1× of sodium pyruvate, non-essential amino acids, L-glutamine and antibiotics.
Cytotoxicity of compounds was evaluated using the CellTiter Blue assay (Promega). HeLa cells were plated in 96-well plates, at a density of 3000 cells/well 1 day before treatment. Treatments were prepared as 1000× serial stock dilutions in DMSO, then diluted into media for 1×, 0.1% DMSO treatment solutions. Plating media was removed, then treatments were added to the wells. After 3 days, the media was removed and replaced with 100 uL complete DMEM without phenol red. Then 20 uL of CellTiter Blue reagent was added, and the plates incubated for two hours at 37° C. Fluorescence was measured at 590 nm with excitation at 560 nm. To determine viability, average background fluorescence was subtracted from average fluorescence readings of the experimental wells (three wells per treatment concentration). Viability was calculated as the average background-subtracted signal in a well compared to that of a negative control well (treatment with 0.1% DMSO/media).
Viabilities were fit in GraphPad Prism using a non-linear, dose-dependent inhibition curve. The IC50 numbers given in the table reflect the concentration at which the cell death is 50% of the maximum response.

HSA = HSA (Homo sapiens, UniProt P02768); assay: in vitro; assay type: in vitro ADME; settings: HSA (human serum albumin), read-out: % bound to protein (converted); for fraction unbound at 1.5 μM: concentration 1.5 μM; for fraction unbound at 3 μM: concentration 3.0 μM
Experimental: Using a dialysis-based protein binding assay according to the method described in Cohen, Plasma Protein-Binding Methods in Drug Discovery in OPTIMIZATION IN DRUG DISCOVERY: IN VITRO METHODS, Yan & Caldwell, eds., pp. 111-122 (Humana Press, Totowa, N.J., 2004), which is hereby incorporated by reference as though set forth herein in its entirety. The percentage of PTX-FA18 and the percentage of octadecanedioic acid (C18 Diacid) bound to the protein at different concentrations was measured.

[1] = Homo sapiens, 72 h, average of at least 3 replicates

Sequence of HSA (P02768 25-609): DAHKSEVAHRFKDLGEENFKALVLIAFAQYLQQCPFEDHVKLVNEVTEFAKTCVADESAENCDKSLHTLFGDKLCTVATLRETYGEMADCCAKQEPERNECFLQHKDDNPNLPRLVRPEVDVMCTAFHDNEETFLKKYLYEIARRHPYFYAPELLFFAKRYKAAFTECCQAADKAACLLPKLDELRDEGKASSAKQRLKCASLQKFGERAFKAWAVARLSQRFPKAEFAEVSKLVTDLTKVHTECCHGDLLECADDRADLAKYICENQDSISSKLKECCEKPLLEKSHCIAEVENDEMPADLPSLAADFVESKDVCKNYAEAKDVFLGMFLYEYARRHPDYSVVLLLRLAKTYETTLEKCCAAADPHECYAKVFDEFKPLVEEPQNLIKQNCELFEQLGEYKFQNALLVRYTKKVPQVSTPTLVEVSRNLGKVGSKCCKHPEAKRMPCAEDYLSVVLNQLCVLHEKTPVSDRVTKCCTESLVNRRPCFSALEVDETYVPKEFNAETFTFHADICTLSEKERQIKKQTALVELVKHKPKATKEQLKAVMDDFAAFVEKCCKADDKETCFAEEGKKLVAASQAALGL

## CC(=O)O[C@H]1C(=O)[C@@]2(C)[C@H]([C@H](OC(=O)c3ccccc3)[C@]3(O)C[C@H](OC(=O)[C@H](OC(=O)CCCCCCCCCCCCCCC(=O)O)[C@@H](NC(=O)c4ccccc4)c4ccccc4)C(C)=C1C3(C)C)[C@]1(OC(C)=O)CO[C@@H]1C[C@@H]2O [PTX-FA16, Paclitaxel-C16 Diacid Conjugate]
HeLa cells; [1]
  IC50: 137 nM

## CC(=O)O[C@H]1C(=O)[C@@]2(C)[C@H]([C@H](OC(=O)c3ccccc3)[C@]3(O)C[C@H](OC(=O)[C@H](OC(=O)CCCCCCCCCCCCCCCCCCC(=O)O)[C@@H](NC(=O)c4ccccc4)c4ccccc4)C(C)=C1C3(C)C)[C@]1(OC(C)=O)CO[C@@H]1C[C@@H]2O [PTX-FA20, Paclitaxel-C20 Diacid Conjugate]
HeLa cells; [1]
  IC50: 27.8 nM

## CC(=O)O[C@H]1C(=O)[C@@]2(C)[C@H]([C@H](OC(=O)c3ccccc3)[C@]3(O)C[C@H](OC(=O)[C@H](OC(=O)CCCCCCC/C=C/CCCCCCCC(=O)O)[C@@H](NC(=O)c4ccccc4)c4ccccc4)C(C)=C1C3(C)C)[C@]1(OC(C)=O)CO[C@@H]1C[C@@H]2O [PTX-FAu18, Paclitaxel-uC18 Diacid Conjugate]
HeLa cells; [1]
  IC50: 40.1 nM

## O=C(O)CCCCCCCCCCCCCCCCC(=O)O [C18 Diacid, octadecanedioic acid]
HSA
  fraction unbound at 1.5 μM: 0.009
  fraction unbound at 3 μM: 0.002
HSA; concentration 20.0 μM
  fraction unbound at 20 μM: 0.026

## COC(=O)CCCCCCCCCCCCCCCCC(=O)NCCCCCC(=O)O[C@@H](C(=O)O[C@H]1C[C@@]2(O)[C@@H](OC(=O)c3ccccc3)[C@@H]3[C@]4(OC(C)=O)CO[C@@H]4C[C@H](O)[C@@]3(C)C(=O)[C@H](OC(C)=O)C(=C1C)C2(C)C)[C@@H](NC(=O)c1ccccc1)c1ccccc1 [PTX-FAE18-Aa, Paclitaxel-C18 Diacid Conjugate+Amino Acid Spacer]
HeLa cells; Homo sapiens, 72 h, one experiment (*)
  IC50: 2330 nM

## Methotrexate-C18 Diacid Conjugate [MTX-FA18]
HeLa cells; average of at least 3 replicates
  IC50: 3010 nM

## CC[C@@]1(OC(=O)CCCCCCCCCCCCCCCCC(=O)O)C(=O)OCc2c1cc1n(c2=O)Cc2cc3ccccc3nc2-1 [CPT-FA18, Camptothecin-C18 Diacid Conjugate]
HeLa cells; [1]
  IC50: 11000 nM

## CC(=O)O[C@H]1C(=O)[C@@]2(C)[C@H]([C@H](OC(=O)c3ccccc3)[C@]3(O)C[C@H](OC(=O)[C@H](OC(=O)CCCCCCCCCCCCCCCCC(=O)O)[C@@H](NC(=O)c4ccccc4)c4ccccc4)C(C)=C1C3(C)C)[C@]1(OC(C)=O)CO[C@@H]1C[C@@H]2O [PTX-FA18, Paclitaxel-C18 Diacid Conjugate]
HSA
  fraction unbound at 1.5 μM: 0.005
  fraction unbound at 3 μM: 0.003
HeLa cells; [1]
  IC50: 64.4 nM
